# pIC50: −log10 of the molar value.
# Target: T1, human SK3 channel (hKCa2.3) (Homo sapiens, UniProt Q9UGI6)
# T1 construct: expressed in transfected cells
# Assay: Automated patch clamping (QPatch 16 HT whole-cell recordings)
# Format: cell-based
# Conditions: HEK-293 cells stably expressing hKCa2.3; currents measured at −80 mV; normalized to N-methyl bicuculline; read-out: IC50 in the Automated patch clamping assay (SK3 channel inhibition)
# Method: Automated whole cell patch-clamp recordings were performed using a QPatch 16 HT system and single-hole Qplates (Sophion, Denmark) on HEK-293 cells stably expressing the human SK3 channel (hKCa2.3). Cells were cultured and prepared for experiments using normal cell culturing procedures. A total of 4-5 million cells were used per experiment. The Qpatch automatically generates giga sealing, whole-cell formation, compound application and recording of current. hKCa2.3 currents were recorded in symmetrical K^+ solutions. The intracellular/pipette solution contained 154 mM KCl, 10 mM HEPES and 10 mM EGTA. CaCl2 is added to give calculated free concentrations of Ca^2+ of 0.4 μM and MgCl2 is added to give a free concentration of 1 mM. In order to maintain a total [K^+] of 156 mM (corresponding to the concentration in the extracellular ringer) a fixed amount of KOH (15 mM) is added, thereafter pH is adjusted with HCl to pH=7.2. Expected osmolarity: 275 mOsm. Sucrose was added to a final osmolarity around 295 mosm. The extracellular solution consisted of (in mM): CaCl2 0.1, MgCl2 3, KCl 150, HEPES 10 and glucose 10, pH=7.4 adjusted with KOH. Osmolarity between 285-295 mosm. The cells were held at 0 mV and hKCa2.3 currents were elicited by a linear voltage ramp from −80 mV to +80 mV (200 ms in duration) applied every 5th second.
# The compound application protocol consisted of 12 recording periods lasting 200 s: 1) Baseline recordings in extracellular solution; 2) Application of the positive control N-methyl bicuculline (100 μM), which is characterized by full efficacy, fast on- and off-rate; 3-4) Wash-out; 5-10) Increasing concentrations of test compound to establish an IC50 value; 11-12) Wash-out; 13) positive control with compound NS8593 (N-[(1R)-1,2,3,4-tetrahydro-1-naphthalenyl]-1H-benzimidazol-2-amine) (1 μM) or with N-methyl bicuculline (100 μM). Data were sampled at 10 kHz, 4th order Bessel filter, cut-off frequency 3 kHz. Currents were compensated for run-down. Potency was quantified as the concentration needed to inhibit half of the SK channel activity and reported as an IC50 value.
# All effects of compounds of the present invention as tested were normalized to the observed inhibitory effect of N-methyl bicuculline. Currents were measured at −80 mV.
row,SMILES,pIC50
1,"CC(CO)(Nc1nc2c(Cn3ccoc3=N)cccc2[nH]1)c1ccc(Cl)c(Cl)c1 (stereo not drawn) [Example 19, 2-(3,4-dichlorophenyl)-2-({4-[(2-imino-2,3-dihydro-1,3-oxazol-3-yl)methyl]-1H-1,3-benzodiazol-2-yl}amino)propan-1-ol]",> 6.00
2,"CC(CO)(Nc1nc2c(Cn3ccsc3=N)cccc2[nH]1)c1ccc(F)c(Cl)c1 (single isomer, unassigned; (-)) [Example 32a, (−)-2-(3-chloro-4-fluorophenyl)-2-({4-[(2-imino-2,3-dihydro-1,3-thiazol-3-yl)methyl]-1H-1,3-benzodiazol-2-yl}amino)propan-1-ol]",> 6.00
3,"CC(CO)(Nc1nc2c(Cn3ccoc3=N)cccc2[nH]1)c1cccc(OC(F)(F)F)c1 (single isomer, unassigned) [Example 27b]",> 4.52
4,"CCC(CO)(Nc1nc2c(Cn3ccoc3=N)cccc2[nH]1)c1cccc(C(F)(F)F)c1 (stereo not drawn) [Example 25, 2-({4-[(2-imino-2,3-dihydro-1,3-oxazol-3-yl)methyl]-1H-1,3-benzodiazol-2-yl}amino)-2-[3-(trifluoromethyl)phenyl]butan-1-ol]",> 4.52
5,"CC(CO)(Nc1nc2c(Cn3ccoc3=N)cccc2[nH]1)c1cccc(C(F)(F)F)c1 (single isomer, unassigned; (+)) [Example 18b, (+)-2-({4-[(2-imino-2,3-dihydro-1,3-oxazol-3-yl)methyl]-1H-1,3-benzodiazol-2-yl}amino)-2-[3-(trifluoromethyl)-phenyl]propan-1-ol]",> 4.52
6,"CC(CO)(Nc1nc2c(CNc3ccon3)cccc2[nH]1)c1ccc(Cl)c(F)c1 (single isomer, unassigned) [Example 44a]",> 4.52
7,"CN1CCN(Cc2cccc3[nH]c(NC(C)(CO)c4ccc(F)c(Cl)c4)nc23)C1=O (stereo not drawn) [Example 35, 1-[(2-{[2-(3-chloro-4-fluorophenyl)-1-hydroxypropan-2-yl]amino}-1H-1,3-benzodiazol-4-yl)methyl]-3-methylimidazolidin-2-one]",> 4.52
8,"CC(CO)(Nc1nc2c(CNc3ncco3)cccc2[nH]1)c1ccc(Cl)c(F)c1 (single isomer, unassigned; (-)) [Example 40a, (−)-2-(4-chloro-3-fluorophenyl)-2-[(4-{[(1,3-oxazol-2-yl)amino]methyl}-1H-1,3-benzodiazol-2-yl)amino]propan-1-ol]",> 4.52
9,"CC(CO)(Nc1nc2c(Cn3ccoc3=N)cccc2[nH]1)c1cccc(Cl)c1 (single isomer, unassigned; (+)) [Example 3b, (+)-2-(3-chlorophenyl)-2-({4-[(2-imino-2,3-dihydro-1,3-oxazol-3-yl)methyl]-1H-1,3-benzodiazol-2-yl}amino)propan-1-ol]",> 4.52
10,"CC(CO)(Nc1nc2c(Cn3ccoc3=N)cccc2[nH]1)c1ccc(Cl)c(Cl)c1 (single isomer, unassigned) [Example 19a]",> 6.00
11,"Cc1cc(NCc2cccc3[nH]c(NC(C)(CO)c4ccc(F)c(Cl)c4)nc23)no1 (single isomer, unassigned; (+)) [Example 12b, (+)-2-(3-chloro-4-fluorophenyl)-2-((4-(((5-methylisoxazol-3-yl)amino)methyl)-1H-benzo[d]imidazol-2-yl)amino)propan-1-ol]",> 4.52
12,"Cn1nccc1NCc1cccc2[nH]c(NC(C)(CO)c3cccc(C(F)(F)F)c3)nc12 (stereo not drawn) [Example 21, 2-((4-(((1-methyl-1H-pyrazol-5-yl)amino)methyl)-1H-benzo[d]imidazol-2-yl)amino)-2-(3-(trifluoromethyl)phenyl) propan-1-ol]",> 4.52
13,"CC(CO)(Nc1nc2c(Cn3ccoc3=N)cccc2[nH]1)c1ccc(F)c(Cl)c1 (single isomer, unassigned; (+)) [Example 8b, (+)-2-(3-chloro-4-fluorophenyl)-2-({4-[(2-imino-2,3-dihydro-1,3-oxazol-3-yl)methyl]-1H-1,3-benzodiazol-2-yl}amino)propan-1-ol]",> 4.52
14,"COCC(C)(Nc1nc2c(Cn3ccoc3=N)cccc2[nH]1)c1ccc(F)c(Cl)c1 (stereo not drawn) [Example 14, N-[2-(3-chloro-4-fluorophenyl)-1-methoxypropan-2-yl]-4-[(2-imino-2,3-dihydro-1,3-oxazol-3-yl)methyl]-1H-1,3-benzodiazol-2-amine]",> 4.52
15,"CC(CO)(Nc1nc2c(Cn3ccoc3=N)cccc2[nH]1)c1cc(F)cc(Cl)c1 (single isomer, unassigned; (+)) [Example 45b, (+)-2-(3-chloro-5-fluorophenyl)-2-({4-[(2-imino-2,3-dihydro-1,3-oxazol-3-yl)methyl]-1H-1,3-benzodiazol-2-yl}amino)propan-1-ol]",> 4.52
16,"Cc1coc(=N)n1Cc1cccc2[nH]c(NC(C)(CO)c3cccc(C(F)(F)F)c3)nc12 (single isomer, unassigned; (-)) [Example 23a, (−)-2-({4-[(2-imino-4-methyl-2,3-dihydro-1,3-oxazol-3-yl)methyl]-1H-1,3-benzodiazol-2-yl}amino)-2-[3-(trifluoromethyl)phenyl]propan-1-ol]",> 6.00
17,"CC(CO)(Nc1nc2c(Cn3cc[nH]c3=O)cccc2[nH]1)c1ccc(F)c(Cl)c1 (stereo not drawn) [Example 33, 1-[(2-{[2-(3-chloro-4-fluorophenyl)-1-hydroxypropan-2-yl]amino}-1H-1,3-benzodiazol-4-yl)methyl]-2,3-dihydro-1H-imidazol-2-one]",> 4.52
18,"CC(CO)(Nc1nc2c(Cn3ccoc3=N)cccc2[nH]1)c1cccc(OC(F)(F)F)c1 (stereo not drawn) [Example 27, 2-({4-[(2-imino-2,3-dihydro-1,3-oxazol-3-yl)methyl]-1H-1,3-benzodiazol-2-yl}amino)-2-[3-(trifluoromethoxy)phenyl]propan-1-ol]",> 6.00
19,"CC(CO)(Nc1nc2c(CNc3ccon3)cccc2[nH]1)c1ccc(F)c(Cl)c1 (stereo not drawn) [Example 9, 2-(3-chloro-4-fluorophenyl)-2-[(4-{[(1,2-oxazol-3-yl)amino]methyl}-1H-1,3-benzodiazol-2-yl)amino]propan-1-ol]",> 6.00
20,"CC(CO)(Nc1nc2c(Cn3ccoc3=N)cccc2[nH]1)c1ccc(Cl)c(F)c1 (single isomer, unassigned) [Example 39b, 2-(4-chloro-3-fluorophenyl)-2-({4-[(2-imino-2,3-dihydro-1,3-oxazol-3-yl)methyl]-1H-1,3-benzodiazol-2-yl}amino)propan-1-ol]",> 4.52
21,"Cc1cn(Cc2cccc3[nH]c(NC(C)(CO)c4cccc(OC(F)(F)F)c4)nc23)c(=N)o1 (single isomer, unassigned; (-)) [Example 30a, (−)-2-({4-[(2-imino-5-methyl-2,3-dihydro-1,3-oxazol-3-yl)methyl]-1H-1,3-benzodiazol-2-yl}amino)-2-[3-(trifluoromethoxy)-phenyl]propan-1-ol]",> 6.00
